# Activity calls are given as the source filed them. No cut-off for these calls is given here. Positions of bridges follow the written chain, without caps; N, C: chain ends. Residues, ends and D or L forms follow the SMILES beside them.
# System: HUVEC
# Settings: Homo sapiens, 50 uM
# Description: Antiangiogenic activity in HUVEC assessed as inhibition of VEGF-A-induced tube formation at 50 uM preincubated for 15 mins prior to VEGF-A addition measured after 4 hrs by matrigel assay
row,Compound,inhibition
1,CSCC[C@@H]1NC(=O)[C@H](CC(C)C)NC(=O)[C@H](CCC(=O)O)NC(=O)[C@H](C(C)C)NC(=O)[C@H]([C@@H](C)O)NC(=O)[C@@H](NC(C)=O)CSSC[C@@H](C(N)=O)NC(=O)[C@@H]2CCCN2C(=O)[C@H](C(C)C)NC(=O)[C@H](CC(C)C)NC(=O)[C@H](CCC(N)=O)NC(=O)[C@H](CCCCN)NC(=O)[C@H](C)NC(=O)[C@H](C(C)C)NC(=O)[C@H]([C@@H](C)O)NC(=O)CNC1=O (Ac-CTVELMGTVAKQLVPC-NH2; disulfide 1-16),Active
2,CC[C@H](C)[C@@H]1NC(=O)[C@H](Cc2ccc(O)cc2)NC(=O)[C@H](CCC(=O)O)NC(=O)[C@H]([C@@H](C)CC)NC(=O)[C@H](CCC(=O)O)NC(=O)[C@H](CC(=O)O)NC(=O)[C@@H]2CCCN2C(=O)[C@H](Cc2ccc(O)cc2)NC(=O)[C@H](CCC(=O)O)NC(=O)[C@H](CCC(N)=O)NC(=O)[C@H](Cc2ccccc2)NC(=O)[C@@H](N)CSSC[C@@H](C(=O)N[C@@H](CCCCN)C(N)=O)NC1=O (H-CFQEYPDEIEYICK-NH2; disulfide 1-13),Active
3,CC[C@H](C)[C@@H]1NC(=O)[C@H](Cc2ccc(O)cc2)NC(=O)[C@H](CCC(=O)O)NC(=O)[C@H]([C@@H](C)CC)NC(=O)[C@H](CCC(=O)O)NC(=O)[C@H](CC(=O)O)NC(=O)[C@@H]2CCCN2C(=O)[C@H](Cc2ccc(O)cc2)NC(=O)[C@H](CCC(=O)O)NC(=O)[C@H](CCC(N)=O)NC(=O)[C@@H](N)CSSC[C@@H](C(=O)N[C@@H](CCCCN)C(N)=O)NC1=O (H-CQEYPDEIEYICK-NH2; disulfide 1-12),Active
